Results: patent EP3868759A1, “2,3,5-SUBSTITUTED PYRROLO[2,3-B]PYRIDINES AS ERBB MODULATORS USEFUL FOR TREATING CANCER” (PearlRiver Bio GmbH, priority 2020, dated 2021)

Key:
[1] = target: EGFR (del746-750) (Homo sapiens, UniProt P00533, DEL746-750); assay: Lance assay, EGFR (del746-750); settings: biochemical Lance assay
[2] = target: T1, HER2 INS YVMA (Homo sapiens, UniProt P04626, INS775YVMA); assay: Lance Kinase Activity Assay, Her2 Exon 20 InsYVMA; settings: biochemical Lance assay
T1 construct: purchased DPF
T1 sequence (P04626 with tags, fused parts or gaps INS775YVMA): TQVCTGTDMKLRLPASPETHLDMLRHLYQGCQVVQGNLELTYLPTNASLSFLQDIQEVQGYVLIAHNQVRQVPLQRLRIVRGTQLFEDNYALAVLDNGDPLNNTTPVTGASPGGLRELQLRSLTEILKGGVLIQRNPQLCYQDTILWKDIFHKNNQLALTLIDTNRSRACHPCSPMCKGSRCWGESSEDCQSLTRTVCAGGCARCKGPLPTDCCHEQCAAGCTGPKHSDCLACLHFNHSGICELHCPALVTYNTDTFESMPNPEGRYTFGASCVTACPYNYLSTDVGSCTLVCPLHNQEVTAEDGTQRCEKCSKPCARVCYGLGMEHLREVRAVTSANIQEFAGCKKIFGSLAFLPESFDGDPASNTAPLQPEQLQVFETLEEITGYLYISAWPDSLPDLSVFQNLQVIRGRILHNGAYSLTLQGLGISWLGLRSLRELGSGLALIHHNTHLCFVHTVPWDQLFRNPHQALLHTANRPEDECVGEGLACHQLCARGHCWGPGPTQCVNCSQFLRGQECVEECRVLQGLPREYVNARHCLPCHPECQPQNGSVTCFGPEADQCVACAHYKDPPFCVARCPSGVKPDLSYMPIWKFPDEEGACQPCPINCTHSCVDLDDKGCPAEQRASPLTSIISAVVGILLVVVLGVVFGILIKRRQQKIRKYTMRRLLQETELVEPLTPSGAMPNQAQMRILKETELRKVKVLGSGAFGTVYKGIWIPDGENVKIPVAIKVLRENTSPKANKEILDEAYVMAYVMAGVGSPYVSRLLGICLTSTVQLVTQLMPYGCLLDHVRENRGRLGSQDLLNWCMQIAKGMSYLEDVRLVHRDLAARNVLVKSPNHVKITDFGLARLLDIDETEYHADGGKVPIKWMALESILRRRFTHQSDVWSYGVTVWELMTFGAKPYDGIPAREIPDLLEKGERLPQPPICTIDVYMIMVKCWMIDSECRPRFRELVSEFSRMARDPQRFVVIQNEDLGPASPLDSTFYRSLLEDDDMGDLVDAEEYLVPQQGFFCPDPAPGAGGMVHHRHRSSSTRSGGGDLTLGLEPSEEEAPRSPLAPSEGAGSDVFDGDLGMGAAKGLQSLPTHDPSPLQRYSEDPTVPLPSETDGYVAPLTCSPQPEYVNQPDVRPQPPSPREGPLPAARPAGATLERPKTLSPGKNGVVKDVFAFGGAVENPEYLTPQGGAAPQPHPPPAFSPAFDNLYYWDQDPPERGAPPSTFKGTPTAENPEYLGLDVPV
Method in brief: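 TR-FRET (LANCE) assay: HER2 ex20 YVMA kinase phosphorylates ULight-peptide; compounds in 8-point 1:3 dilutions from 10 mM DMSO stock; ATP-started, 1 h at room temperature, stopped with EDTA plus Eu-anti-phosphopeptide antibody, 1 h more. Read 665/615 nm emission; IC50 from sigmoidal dose-response curves.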

[3] = test system: A431; assay: CellTiter-Glo cell viability, A431; type: cell-based; settings: Homo sapiens, A-431, 72 h, read-out: A431 CTG IC50
Method in brief: (§1)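 Luminescent ATP quantification (CellTiter-Glo) after 72 h compound exposure gave viability; IC50 values came from dose-response curve fitting. Cells had been pre-incubated 24 h at 37°C, 5% CO2. Only plates with Z'-factor ≥ 0.5 were used.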

[4] = test system: EGFR vIII Ba/F3; assay: CellTiter-Glo cell viability, EGFR vIII Ba/F3; type: cell-based; settings: Mus musculus, BaF3, 72 h, read-out: EGFR vIII Ba/F3 CTG IC50 /
Method in brief: as §1

[5] = test system: EGFR L858R Ba/F3; assay: CellTiter-Glo cell viability, EGFR L858R Ba/F3; type: cell-based; settings: Mus musculus, BaF3, 72 h, read-out: EGFR L858R Ba/F3 CTG IC50 /
Description: (§2) The CellTiter-Glo Luminescent Cell Viability Assay (Promega) is a homogeneous method of determining the number of viable cells in culture. It is based on quantification of ATP, indicating the presence of metabolically active cells. Cells are seeded on day 1 at cell numbers that assure assay linearity and optimal signal intensity. After incubation for 24h in humidified chambers at 37°C and 5% CO2, compounds in DMSO are added at different concentrations. Cells are further incubated for 72 h at 37°C and 5% CO2. Cells treated with the compound vehicle DMSO are used as positive controls and cells treated with 10 µM Staurosporine serve as negative controls. At day 5 the CellTiter Glo Reagent is prepared according to the instructions of the kit (Promega Inc.): Reagent is mixed 1:1 with cell culture medium. Thereon, mixture and assay plates are equilibrated at room temperature for 20 min. Equal volumes of the reagent-medium-mixture is added to the volume of culture medium present in each well. The plates are mixed at ∼200 rpm for 2 minutes on an orbital shaker. The microplates are then incubated at room temperature for 10 minutes for stabilization of the luminescent signal. Following incubation the luminescence is recorded on a Victor microplate reader (Perkin Elmer) using a 200 ms integration time. The data is then analyzed with Excel using the XLFIT Plugin (dose response Fit 205) for IC50-determination. As quality control the Z'-factor is calculated from 16 positive and negative control values. Only assay results showing a Z'-factor ≥ 0.5 are used for further analysis.

[6] = target: EGFR L858R (Homo sapiens, UniProt P00533, L858R); assay: Lance assay, EGFR L858R; settings: biochemical Lance assay
[7] = test system: EGFR Exon 20 InsNPH Ba/F3; assay: CellTiter-Glo cell viability, EGFR Exon 20 InsNPH Ba/F3; type: cell-based; settings: Mus musculus, BaF3, 72 h, read-out: EGFR Exon 20 InsNPH Ba/F3 CTG IC50
Method in brief: as §1

[8] = test system: EGFR L858R T790M Ba/F3; assay: CellTiter-Glo cell viability, EGFR L858R T790M Ba/F3; type: cell-based; settings: Mus musculus, BaF3, 72 h, read-out: EGFR L858R T790M Ba/F3 CTG IC50 /
Description: as §2

[9] = target: EGFR wt (Homo sapiens, UniProt P00533); assay: Lance assay, EGFR wt; settings: biochemical Lance assay
Chain of EGFR wt (P00533 25-1210): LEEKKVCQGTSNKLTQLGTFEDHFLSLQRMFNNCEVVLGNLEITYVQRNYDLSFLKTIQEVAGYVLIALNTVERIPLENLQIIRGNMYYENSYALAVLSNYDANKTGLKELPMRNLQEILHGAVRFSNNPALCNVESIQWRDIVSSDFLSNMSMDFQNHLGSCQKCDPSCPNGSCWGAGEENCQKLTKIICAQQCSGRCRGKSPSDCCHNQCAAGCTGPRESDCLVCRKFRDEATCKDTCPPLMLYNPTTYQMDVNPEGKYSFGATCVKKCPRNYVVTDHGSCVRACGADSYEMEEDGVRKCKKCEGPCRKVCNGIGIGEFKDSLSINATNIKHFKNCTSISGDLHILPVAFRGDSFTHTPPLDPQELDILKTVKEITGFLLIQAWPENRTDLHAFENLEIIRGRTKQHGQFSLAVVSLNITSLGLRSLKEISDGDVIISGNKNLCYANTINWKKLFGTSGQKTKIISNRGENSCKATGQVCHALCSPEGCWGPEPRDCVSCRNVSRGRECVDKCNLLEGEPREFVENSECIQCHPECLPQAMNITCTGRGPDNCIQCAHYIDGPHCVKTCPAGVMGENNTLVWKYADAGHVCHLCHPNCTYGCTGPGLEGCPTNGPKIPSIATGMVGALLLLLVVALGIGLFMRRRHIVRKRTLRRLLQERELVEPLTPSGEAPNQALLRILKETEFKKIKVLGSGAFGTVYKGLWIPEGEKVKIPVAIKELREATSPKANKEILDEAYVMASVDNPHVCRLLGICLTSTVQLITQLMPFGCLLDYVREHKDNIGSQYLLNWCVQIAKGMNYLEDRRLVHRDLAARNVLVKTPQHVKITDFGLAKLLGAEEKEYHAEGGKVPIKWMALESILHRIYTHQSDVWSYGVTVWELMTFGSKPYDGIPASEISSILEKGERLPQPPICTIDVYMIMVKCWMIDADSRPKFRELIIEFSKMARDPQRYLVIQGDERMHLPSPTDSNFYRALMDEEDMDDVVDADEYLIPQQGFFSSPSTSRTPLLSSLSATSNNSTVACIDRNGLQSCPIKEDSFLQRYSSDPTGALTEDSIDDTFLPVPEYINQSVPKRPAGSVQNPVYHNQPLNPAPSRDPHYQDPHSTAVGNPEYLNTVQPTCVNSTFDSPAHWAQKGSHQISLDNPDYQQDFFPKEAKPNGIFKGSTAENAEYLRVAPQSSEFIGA

[10] = test system: Her2 Exon 20 InsYVMA Ba/F3; assay: CellTiter-Glo cell viability, Her2 Exon 20 InsYVMA Ba/F3; type: cell-based; settings: Mus musculus, BaF3, 72 h, read-out: Her2 Exon 20 InsYVMA Ba/F3 CTG IC50
Method in brief: as §1

[11] = target: EGFR T790M L858R (Homo sapiens, UniProt P00533, L858R/T790M); assay: Lance assay, EGFR T790M L858R; settings: biochemical Lance assay
Chain of EGFR T790M L858R (P00533 25-1210 T790M/L858R): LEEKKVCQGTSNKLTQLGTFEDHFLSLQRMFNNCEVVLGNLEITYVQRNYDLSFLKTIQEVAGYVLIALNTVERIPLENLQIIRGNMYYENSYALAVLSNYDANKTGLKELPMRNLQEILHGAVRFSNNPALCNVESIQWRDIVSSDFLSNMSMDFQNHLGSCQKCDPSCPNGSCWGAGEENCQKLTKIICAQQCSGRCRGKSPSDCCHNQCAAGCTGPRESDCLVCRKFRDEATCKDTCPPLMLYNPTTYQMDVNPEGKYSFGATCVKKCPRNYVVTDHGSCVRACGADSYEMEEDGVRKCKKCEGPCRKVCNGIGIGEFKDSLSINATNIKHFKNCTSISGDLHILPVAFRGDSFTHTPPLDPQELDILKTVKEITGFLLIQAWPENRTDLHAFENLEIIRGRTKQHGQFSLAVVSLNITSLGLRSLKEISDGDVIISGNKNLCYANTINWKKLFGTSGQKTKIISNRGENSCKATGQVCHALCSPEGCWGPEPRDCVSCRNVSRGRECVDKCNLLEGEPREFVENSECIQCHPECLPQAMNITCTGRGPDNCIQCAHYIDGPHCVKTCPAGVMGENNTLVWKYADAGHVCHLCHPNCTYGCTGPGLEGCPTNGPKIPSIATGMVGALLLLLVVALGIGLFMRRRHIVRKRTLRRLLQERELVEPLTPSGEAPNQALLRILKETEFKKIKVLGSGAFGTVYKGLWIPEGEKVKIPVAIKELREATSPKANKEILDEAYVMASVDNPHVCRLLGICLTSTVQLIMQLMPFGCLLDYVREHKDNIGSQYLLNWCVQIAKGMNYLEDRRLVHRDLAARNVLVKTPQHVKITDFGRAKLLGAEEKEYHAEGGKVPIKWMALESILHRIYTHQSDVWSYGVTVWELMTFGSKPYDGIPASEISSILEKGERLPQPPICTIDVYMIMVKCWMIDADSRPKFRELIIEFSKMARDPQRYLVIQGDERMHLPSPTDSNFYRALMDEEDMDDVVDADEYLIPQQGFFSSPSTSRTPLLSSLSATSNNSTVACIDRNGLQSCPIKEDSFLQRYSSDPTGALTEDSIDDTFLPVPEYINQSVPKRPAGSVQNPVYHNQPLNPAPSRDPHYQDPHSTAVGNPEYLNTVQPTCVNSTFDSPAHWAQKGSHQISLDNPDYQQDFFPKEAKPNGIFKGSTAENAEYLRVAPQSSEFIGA

[12] = test system: Cuto-17; assay: CellTiter-Glo cell viability, Cuto-17; type: cell-based; settings: CUTO17, 72 h, read-out: Cuto-17 CTG IC50
Method in brief: as §1

[13] = test system: H1975; assay: CellTiter-Glo cell viability, H1975; type: cell-based; settings: Homo sapiens, NCI-H1975, 72 h, read-out: H1975 CTG IC50
Method in brief: as §1

Chain of EGFR (del746-750) (P00533 with tags, fused parts or gaps DEL746-750): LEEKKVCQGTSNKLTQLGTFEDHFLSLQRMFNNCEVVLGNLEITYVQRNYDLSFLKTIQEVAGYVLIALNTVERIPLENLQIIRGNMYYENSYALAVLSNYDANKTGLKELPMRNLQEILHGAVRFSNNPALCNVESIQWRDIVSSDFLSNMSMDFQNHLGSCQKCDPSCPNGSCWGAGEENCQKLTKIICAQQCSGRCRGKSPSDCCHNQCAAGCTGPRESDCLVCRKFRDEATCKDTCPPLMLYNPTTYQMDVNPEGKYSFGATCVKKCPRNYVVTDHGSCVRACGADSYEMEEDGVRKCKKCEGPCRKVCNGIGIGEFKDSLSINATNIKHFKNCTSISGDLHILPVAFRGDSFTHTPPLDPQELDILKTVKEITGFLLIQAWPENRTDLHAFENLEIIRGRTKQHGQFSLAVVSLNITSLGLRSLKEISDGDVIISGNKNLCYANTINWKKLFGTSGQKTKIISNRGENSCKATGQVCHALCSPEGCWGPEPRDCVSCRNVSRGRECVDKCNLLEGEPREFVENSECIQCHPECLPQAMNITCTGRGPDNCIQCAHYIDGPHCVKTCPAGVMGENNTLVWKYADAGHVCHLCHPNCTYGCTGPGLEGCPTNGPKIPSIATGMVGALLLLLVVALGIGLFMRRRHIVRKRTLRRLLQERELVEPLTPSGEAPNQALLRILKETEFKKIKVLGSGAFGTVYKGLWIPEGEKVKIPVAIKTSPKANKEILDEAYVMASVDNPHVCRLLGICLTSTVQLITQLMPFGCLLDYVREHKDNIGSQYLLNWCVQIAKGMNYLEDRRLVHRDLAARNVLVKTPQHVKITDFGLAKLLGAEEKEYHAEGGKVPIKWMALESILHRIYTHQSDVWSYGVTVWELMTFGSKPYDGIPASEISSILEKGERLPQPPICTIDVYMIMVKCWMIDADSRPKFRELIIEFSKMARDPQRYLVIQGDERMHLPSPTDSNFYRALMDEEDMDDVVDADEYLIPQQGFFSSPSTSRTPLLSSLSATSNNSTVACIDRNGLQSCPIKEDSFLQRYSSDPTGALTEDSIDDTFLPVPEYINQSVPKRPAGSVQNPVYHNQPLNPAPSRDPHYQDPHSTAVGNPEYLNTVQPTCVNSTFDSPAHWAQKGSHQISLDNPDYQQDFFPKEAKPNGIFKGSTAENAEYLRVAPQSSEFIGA

Row | IC50 [1] | IC50 [2] | IC50 [3] | IC50 [4] | IC50 [5] | IC50 [6] | IC50 [7] | IC50 [8] | IC50 [9] | IC50 [10] | IC50 [11] | IC50 [13] | SMILES | IC50 [12]
1 | ≤ 50 nM | 50 to 100 nM | 1000 to 10000 nM | 100 to 500 nM | ≤ 50 nM | ≤ 50 nM | 100 to 500 nM | ≤ 50 nM | ≤ 50 nM | 100 to 500 nM | ≤ 50 nM | 500 to 1000 nM | C=CC(=O)Nc1cc(-c2c(-c3cnn(C)c3)[nH]c3ncc(C(=O)OC(C)C)cc23)ccc1C [Example 1, Isopropyl 3-(3-acrylamido-4-methylphenyl)-2-(1-methyl-1H-pyrazol-4-yl)-1H-pyrrolo[2,3-b]pyridine-5-carboxylate 2,2,2-trifluoroacetate] | 500 to 1000 nM
2 | ≤ 50 nM | 100 to 500 nM | 1000 to 10000 nM | 50 to 100 nM | ≤ 50 nM | ≤ 50 nM | 50 to 100 nM | 50 to 100 nM | ≤ 50 nM | 100 to 500 nM | ≤ 50 nM | 100 to 500 nM | C=CC(=O)Nc1cc(-c2c(-c3cnn(C)c3)[nH]c3ncc(C(=O)OC(C)C)c(C)c23)ccc1C [Example 7, isopropyl 3-(3-acrylamido-4-methylphenyl)-4-methyl-2-(1-methyl-1H-pyrazol-4-yl)-1H-pyrrolo[2,3-b]pyridine-5-carboxylate2,2,2-trifluoroacetate] | 100 to 500 nM
3 | ≤ 50 nM | 50 to 100 nM | 1000 to 10000 nM | 100 to 500 nM | ≤ 50 nM | ≤ 50 nM | 50 to 100 nM | ≤ 50 nM | ≤ 50 nM | 50 to 100 nM | ≤ 50 nM | 500 to 1000 nM | C=CC(=O)Nc1cc(-c2c(-c3cnn(CC)c3)[nH]c3ncc(C(=O)OC(C)C)cc23)cc(F)c1C [Example 5, isopropyl 3-(3-acrylamido-5-fluoro-4-methylphenyl)-2-(1-ethyl-1 H-pyrazol-4-yl)-1H-pyrrolo[2,3-b]pyridine-5-carboxylate] | 100 to 500 nM
